Assay results: patent US20050080139A1, “Naaladase inhibitors for treating huntington's disease” (priority 2001, published 2005)

Experiments:
[1] = biological target: NAALADase (Homo sapiens, UniProt Q04609); conditions: NAAG as substrate of NAALADase; cited from earlier work
[2] = test system: Transgenic HD mice of the N171-82Q strain; assay: Rotarod behavioral testing in transgenic mouse model of Huntington's disease; type: in vivo; conditions: transgenic HD mice N171-82Q, 30 mg/kg from 10 weeks of age, vs vehicle
Experimental: Transgenic HD mice of the […]-[…] strain and non-transgenic littermates were treated with NAALADase inhibitor Compound B (30 mg/kg) or a vehicle from 10 weeks of age. The mice were placed on a rotating rod (“rotarod”). The length of time at which the mouse fell off the rotarod was recorded as a measure of motor coordination. […] The treatment with Compound B had no effect on the rotarod performance of normal non-HD mice.

[3] = test system: transgenic HD mice (N171-82Q); assay: Survival of transgenic HD mice; type: in vivo
Experimental: The effects of Compound B and vehicle on the survival of transgenic HD mice (N171-82Q) were evaluated. Thirteen mice (six male and seven female) were assigned to the Compound B treatment group, and fourteen mice (six male and eight female) were assigned to the vehicle treatment group. Treatment was continued until all the mice died.

[4] = test system: Transgenic HD mice of the N171-82Q strain; assay: Total distance traveled (overall locomotion) in HD mice; type: in vivo; conditions: 30 mg/kg from 10 weeks of age, vs vehicle
Experimental: Transgenic HD mice of the […]-[…] strain and non-transgenic littermates were treated with NAALADase inhibitor Compound B (30 mg/kg) or a vehicle from 10 weeks of age. The mice were placed on a rotating rod (“rotarod”). The length of time at which the mouse fell off the rotarod was recorded as a measure of motor coordination. […] The treatment with Compound B had no effect on the rotarod performance of normal non-HD mice. The total distance traveled by the mice was also recorded as a measure of overall locomotion.

Chain of NAALADase (Q04609 whole entry): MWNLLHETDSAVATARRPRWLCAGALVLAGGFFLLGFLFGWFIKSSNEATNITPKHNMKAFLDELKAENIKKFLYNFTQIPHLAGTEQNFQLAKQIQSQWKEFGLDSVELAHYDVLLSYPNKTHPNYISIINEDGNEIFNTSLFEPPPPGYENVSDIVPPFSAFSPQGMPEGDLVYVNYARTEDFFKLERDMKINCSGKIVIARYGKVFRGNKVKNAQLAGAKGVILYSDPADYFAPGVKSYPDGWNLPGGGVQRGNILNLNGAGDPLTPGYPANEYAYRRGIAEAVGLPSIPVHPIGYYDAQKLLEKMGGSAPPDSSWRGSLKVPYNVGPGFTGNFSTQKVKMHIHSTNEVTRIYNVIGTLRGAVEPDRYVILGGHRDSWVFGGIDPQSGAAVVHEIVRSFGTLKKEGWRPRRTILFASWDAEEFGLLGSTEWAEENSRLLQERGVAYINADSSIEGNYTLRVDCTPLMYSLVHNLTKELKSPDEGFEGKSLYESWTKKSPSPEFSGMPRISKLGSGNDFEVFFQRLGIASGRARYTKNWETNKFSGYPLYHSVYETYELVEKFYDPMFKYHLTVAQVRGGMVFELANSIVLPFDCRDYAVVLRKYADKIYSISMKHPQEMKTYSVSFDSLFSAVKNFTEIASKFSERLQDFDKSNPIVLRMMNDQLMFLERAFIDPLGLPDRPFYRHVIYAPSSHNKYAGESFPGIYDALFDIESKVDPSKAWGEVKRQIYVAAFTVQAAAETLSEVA

Compound | Km [1] | rotarod performance (length of time on the rotarod, motor coordination) [2] | survival time vs vehicle ([3]; female transgenic HD mice, p-value 0.03) | survival time vs vehicle ([3]; transgenic HD mice N171-82Q, both sexes, difference in median survival time) | median survival time ([3]; transgenic HD mice N171-82Q, both sexes, vehicle 158.5 days, p-value=0.07) | total distance traveled (overall locomotion) [4]
N-acetyl-aspartyl-glutamate [NAAG] | 0.54 µM | – | – | – | – | –
O=C(O)CCC(CCCS)C(=O)O (stereo not drawn) [Compound B, 2-(3-sulfanylpropyl)-pentanedioic acid] | – | stayed longer on the rotarod | significantly prolonged survival time | not statistically significant | 184 days | no apparent effect on overall locomotion
